Literature values, collected in patent US20170332633A1, “DOUBLE SALT IONIC LIQUIDS OF HERBICIDES” (THE BOARD OF TRUSTEES OF THE UNIVERSITY OF ALABAMA, priority 2014, published 2017).

System: rat

Row | SMILES | rat LD50 [mg/kg]
1 | COc1c(Cl)ccc(Cl)c1C(=O)O [Dicamba, 3,6-dichloro-2-methoxy benzoic acid] | 1039
2 | O=C(O)COc1ccc(Cl)cc1Cl [Example 2.4-D, 2,4-dichlorophenoxyacetic acid] | 639 to 764
